Patent US20190002942A1, “ANTIBIOTIC FIIRV 104/18 COMPLEX AND THE ISOLATED INDIVIDUAL FACTORS THEREOF” (Fondazione Istituto Insubrico di Ricerca per la Vita, priority 2015, published 2019)
In brackets after ≈: the same amount, converted by molar mass. Like-named read-outs stand apart in the source and are kept apart here.

Assays:
[1] = test system: L819 S. aureus Smith ATCC19636; assay: MIC, broth microdilution (CLSI); type: cell-based, Staphylococcus aureus; details: Staphylococcus aureus
Method: (§1) Inocula are: 2-5×10^5 CFU/mL for Gram positive and Gram negative bacteria; 10^4 CFU/mL for Candida albicans.
(§2) The effect of 30% bovine serum is determined under the same experimental conditions.
(§3) Cultures are incubated at 35° C. in air. After 18-24 hours visual readings are performed and MICs determined. The MIC (Minimal Inhibitory Concentration) is defined as the lower concentration of antibiotic at which there is no visible growth. The strains used are clinical isolates or strains from American Type Culture Collection (ATCC).

L100 S. aureus ATCC 6538 = assay: MIC, broth microdilution (CLSI); type: cell-based; details: Staphylococcus aureus, ATCC6538
Method: as §1, §2, §3

L1400 S. aureus MRSA = assay: MIC, broth microdilution (CLSI); type: cell-based; details: Staphylococcus aureus
Method: as §1, §2, §3

L1577 S. epidermidis = assay: MIC, broth microdilution (CLSI); type: cell-based; details: Staphylococcus epidermidis
Method: as §1, §2, §3

[2] = test system: L1729 S. haemolyticus MDR; assay: MIC, broth microdilution (CLSI); type: cell-based; details: Staphylococcus haemolyticus
Method: as §1, §2, §3

L1730 S. haemolyticus = assay: MIC, broth microdilution (CLSI); type: cell-based; details: Staphylococcus haemolyticus
Method: as §1, §2, §3

L3030 A. baumannii = assay: MIC, broth microdilution (CLSI); type: cell-based; details: Acinetobacter baumannii
Method: as §1, §2, §3

L3294 M. catarrhalis = assay: MIC, broth microdilution (CLSI); type: cell-based; details: Moraxella catarrhalis
Method: as §1, §2, §3

L44 S. pneumoniae = assay: MIC, broth microdilution (CLSI); type: cell-based; details: Streptococcus pneumoniae
Method: as §1, §2, §3

L47 E. coli, SKF 12140 = assay: MIC, broth microdilution (CLSI); type: cell-based; details: Escherichia coli
Method: as §1, §2, §3

L49 S. pyogenes C203 = assay: MIC, broth microdilution (CLSI); type: cell-based; details: Streptococcus pyogenes
Method: as §1, §2, §3

L559 E. faecalis = assay: MIC, broth microdilution (CLSI); type: cell-based; details: Enterococcus faecalis
Method: as §1, §2, §3

L568 E. faecium = assay: MIC, broth microdilution (CLSI); type: cell-based; details: Enterococcus faecium
Method: as §1, §2, §3

L569 E. faecium VanA = assay: MIC, broth microdilution (CLSI); type: cell-based, Enterococcus faecium; details: Enterococcus faecium, L569 E. faecium VanA
Method: as §1, §2, §3

L560 E. faecalis VanA = assay: MIC, broth microdilution (CLSI); type: cell-based, Enterococcus faecalis; details: Enterococcus faecalis, L560 E. faecalis VanA
Method: as §1, §2, §3

L2048 B. cenocepacia = assay: MIC, broth microdilution (CLSI); type: cell-based; details: Burkholderia cenocepacia
Method: (§4) Antimicrobial activity of the antibiotic FIIRV 104/18 complex is determined by the broth microdilution method according to the procedures published by the Clinical and Laboratory Standards Institute (CLSI), formerly the National Committee for Clinical Laboratory Standards (NCCLS) (document M07-A9). Inocula are: 2-5×10^5 CFU/mL for Gram positive and Gram negative bacteria; 10^4 CFU/mL for Candida albicans.
(§5) The media used are: cation adjusted Mueller Hinton broth (CAMHB) for Staphylococci, Enterococci, Moraxella catarrhalis, Escherichia coli; Todd Hewitt broth (THB) for Streptococci; RPMI 1640 Medium for C. albicans. The effect of 30% bovine serum is determined under the same experimental conditions.
(§6) Cultures are incubated at 35° C. in air. After 18-24 hours visual readings are performed and MICs determined. The MIC (Minimal Inhibitory Concentration) is defined as the lower concentration of antibiotic at which there is no visible growth. The strains used are clinical isolates or strains from American Type Culture Collection (ATCC). Individual factors of antibiotic FIIRV 104/18 are dissolved in DMSO to obtain a 1000 μg/mL stock solution, and subsequently diluted in water to obtain working solution.

L145 C. albicans = assay: MIC, broth microdilution (CLSI); type: cell-based, Candida albicans
Method: as §4, §5, §6

[3] = test system: Gram-positive susceptible, resistant and multi-resistant pathogenic bacteria; assay: Growth inhibition of Gram-positive bacteria (summary); type: cell-based; details: Gram positive bacteria: Staphylococci incl. MRSA and MR coagulase-negative, Streptococci, Enterococci incl. VanA
Method: as §4, §5, §6

[4] = ATCC19636, L819 S. aureus Smith ATCC19636, CAMHB, read-out: MIC
[5] = ATCC19636, L819 S. aureus Smith, +30% SB (bovine serum), read-out: MIC
[6] = L100 S. aureus ATCC 6538, CAMHB, read-out: MIC
[7] = L1400 S. aureus MRSA, CAMHB, read-out: MIC
[8] = L1577 S. epidermidis, CAMHB, read-out: MIC
[9] = L1729 S. haemolyticus MDR, CAMHB, read-out: MIC
[10] = L1730 S. haemolyticus, CAMHB, read-out: MIC
[11] = L3030 A. baumannii, read-out: MIC
[12] = L3294 M. catarrhalis, CAMHB, read-out: MIC
[13] = L44 S. pneumoniae, THB, read-out: MIC
[14] = L47 E. coli, SKF 12140, CAMHB, read-out: MIC
[15] = L49 S. pyogenes C203, THB, read-out: MIC
[16] = L559 E. faecalis, CAMHB, read-out: MIC
[17] = L568 E. faecium, CAMHB, read-out: MIC
[18] = +30% SB (bovine serum), read-out: MIC
[19] = L2048 B. cenocepacia, read-out: MIC
[20] = Candida albicans, L145 C. albicans, RPMI, inoculum 10^4 CFU/mL, read-out: MIC

Row | SMILES | MIC [1, 4] [µg/mL] | MIC [1, 5] [µg/mL] | MIC (L100 S. aureus ATCC 6538; [6]) [µg/mL] | MIC (L1400 S. aureus MRSA; [7]) [µg/mL] | MIC (L1577 S. epidermidis; [8]) [µg/mL] | MIC [2, 9] [µg/mL] | MIC (L1730 S. haemolyticus; [10]) [µg/mL] | MIC (L3030 A. baumannii; [11]) [µg/mL] | MIC (L3294 M. catarrhalis; [12]) [µg/mL] | MIC (L44 S. pneumoniae; [13]) [µg/mL] | MIC (L47 E. coli, SKF 12140; [14]) [µg/mL] | MIC (L49 S. pyogenes C203; [15]) [µg/mL] | MIC (L559 E. faecalis; [16]) [µg/mL] | MIC (L568 E. faecium; [17]) [µg/mL] | MIC (L569 E. faecium VanA; [18]) [µg/mL] | MIC (L569 E. faecium VanA; CAMHB, read-out: MIC) [µg/mL] | MIC (L560 E. faecalis VanA; [18]) [µg/mL] | MIC (L560 E. faecalis VanA; CAMHB, read-out: MIC) [µg/mL] | MIC (L2048 B. cenocepacia; [19]) [µg/mL] | antibacterial activity (in words) [3] | also measured
1 | COC(=O)c1c(C)cc2c(c1O)[C@]1(O)C(=O)c3cc4c(c(O)c3C(=O)[C@]1(OC)[C@H](O)C2)C(=O)C=C(NC1O[C@@H](C)[C@H](OC2C[C@H](O)[C@H](O)C(C)O2)[C@@H](O)[C@H]1OC)C4=O (stereo partly drawn) [F813, (6R,6aS,14aR)-methyl 11-[(2S,3R,4R,5R,6S)-5-{[(2R,5S,6S)-4,5-dihydroxy-6-methyltetrahydro-2H-pyran-2-yl]oxy}-4-hydroxy-3-methoxy-6-methyltetrahydro-2H-pyran-2-ylamino]-1,6,8,14a-tetrahydroxy-6a-methoxy-3-methyl-7,9,12,14-tetraoxo-5,6,6a,7,9,12,14,14a-octahydrobenzo[α]tetracene-2-carboxylate] | 0.125 (≈ 0.154 µM) | 1 (≈ 1.23 µM) | 0.125 (≈ 0.154 µM) | 0.5 (≈ 0.614 µM) | 0.5 (≈ 0.614 µM) | 0.5 (≈ 0.614 µM) | 0.5 (≈ 0.614 µM) | 128 (≈ 157 µM) | 0.5 (≈ 0.614 µM) | 0.125 (≈ 0.154 µM) | 128 (≈ 157 µM) | 0 to 125 | 4 (≈ 4.92 µM) | 4 (≈ 4.92 µM) | 16 (≈ 19.7 µM) | 4 (≈ 4.92 µM) | 16 (≈ 19.7 µM) | 4 (≈ 4.92 µM) | 64 (≈ 78.6 µM) | very high antibacterial activity | MIC (L145 C. albicans; [20]): > 128 µg/mL
2 | C[C@@H]1[C@H](O)[C@@H](C)/C=C/C=C/C=C/C=C/C=C/C=C/C=C/[C@H](O[C@@H]2O[C@H](C)[C@@H](O)[C@H](N)[C@@H]2O)C[C@@H]2O[C@](O)(C[C@@H](O)C[C@@H](O)[C@H](O)CC[C@@H](O)C[C@@H](O)CC(=O)O[C@H]1C)C[C@H](O)[C@H]2C(=O)O [AmB, Amphotericin B, reference compound] | – | – | – | – | – | – | – | – | – | – | – | – | – | – | – | – | – | – | – | – | MIC (L145 C. albicans; L145 C. albicans, RPMI, inoculum 10^4 CFU/mL): 1 µg/mL (≈ 1.08 µM)
3 | COC(=O)c1c(C)cc2c(c1O)C1(O)C(=O)c3cc4c(c(O)c3C(=O)C1(OC)[C@H](O)C2)C(=O)C=C(NC1O[C@@H](C)[C@H](OC2C=CC(=O)C(C)O2)[C@@H](O)[C@H]1OC)C4=O (stereo partly drawn) [F793, (6R,6aS,14aR)-methyl 11-[(2S,3R,4R,5R,6S)-4-hydroxy-3-methoxy-6-methyl-5-{[(2S,6S)-6-methyl-5-oxo-5,6-dihydro-2H-pyran-2-yl]oxy}tetrahydro-2H-pyran-2-ylamino]-1,6,8,14a-tetrahydroxy-6a-methoxy-3-methyl-7,9,12,14-tetraoxo-5,6,6a,7,9,12,14,14a-octahydrobenzo[α]tetracene-2-carboxylate] | – | – | – | – | – | – | – | – | – | – | – | – | – | – | – | – | – | – | – | very high antibacterial activity | MIC ([1]; ATCC19636, L819 S. aureus Smith ATCC19636, CAMHB): 0.5 µg/mL (≈ 0.63 µM); MIC ([1]; ATCC19636, L819 S. aureus Smith, +30% SB (bovine serum)): 4 µg/mL (≈ 5.04 µM); MIC (L100 S. aureus ATCC 6538): 1 µg/mL (≈ 1.26 µM); MIC (L1400 S. aureus MRSA; MRSA): 0.5 µg/mL (≈ 0.63 µM); MIC (L1577 S. epidermidis): 0.25 µg/mL (≈ 0.315 µM); MIC [2]: 1 µg/mL (≈ 1.26 µM); MIC (L1730 S. haemolyticus): 1 µg/mL (≈ 1.26 µM); MIC (L3030 A. baumannii): 128 µg/mL (≈ 161 µM); MIC (L3294 M. catarrhalis): 1 µg/mL (≈ 1.26 µM); MIC (L44 S. pneumoniae): 0.06 µg/mL (≈ 0.0756 µM); MIC (L47 E. coli, SKF 12140): > 128 µg/mL; MIC (L49 S. pyogenes C203): 0.03 µg/mL (≈ 0.0378 µM); MIC (L559 E. faecalis): 0.5 µg/mL (≈ 0.63 µM); MIC (L568 E. faecium): 1 µg/mL (≈ 1.26 µM); MIC (L569 E. faecium VanA; +30% SB (bovine serum)): 16 µg/mL (≈ 20.2 µM); MIC (L569 E. faecium VanA; CAMHB): 1 µg/mL (≈ 1.26 µM); MIC (L560 E. faecalis VanA; +30% SB (bovine serum)): 2 µg/mL (≈ 2.52 µM); MIC (L560 E. faecalis VanA; CAMHB): 0.5 µg/mL (≈ 0.63 µM); MIC (L2048 B. cenocepacia): 128 µg/mL (≈ 161 µM); MIC (L145 C. albicans; Candida albicans): > 128 µg/mL
4 | COC(=O)c1c(C)cc2c(c1O)[C@]1(O)C(=O)c3cc4c(c(O)c3C(=O)[C@]1(OC)[C@H](O)C2)C(=O)C=C(NC1O[C@@H](C)[C@H](O)[C@@H](O)[C@H]1OC)C4=O (stereo partly drawn) [F683, 6R,6aS,14aR-methyl-11,6,8,14a-tetrahydroxy-11[(2S,3R,4R,5R,6S)-4,5-dihydroxy-3-methoxy-6-methyltetrahydro-2H-pyran-2-ylamino]-6a-methoxy-3-methyl-7,9,12,14-tetraoxo-5,6,6a,7,9,12,14,14a-octahydrobenzo[α]tetracene-2-carboxylate] | 0.5 (≈ 0.731 µM) | 8 (≈ 11.7 µM) | 2 (≈ 2.93 µM) | 0.5 (≈ 0.731 µM) | 0.5 (≈ 0.731 µM) | 0.5 (≈ 0.731 µM) | 0.5 (≈ 0.731 µM) | > 128 | 0.5 (≈ 0.731 µM) | 0.125 (≈ 0.183 µM) | > 128 | 0.125 (≈ 0.183 µM) | 8 (≈ 11.7 µM) | 16 (≈ 23.4 µM) | > 32 | 16 (≈ 23.4 µM) | 32 (≈ 46.8 µM) | 8 (≈ 11.7 µM) | > 128 | very high antibacterial activity | MIC (L145 C. albicans; [20]): > 128 µg/mL
